The values below come from PubChem BioAssay (NCI).

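Step 1: Grow cells in 96-well plates. Step 2: Expose to compound for 48 hours at 5 concentrations. Step 3: Interpolate endpoints linearly; if unreached, use highest concentration. The concentration for 50% growth inhibition is given as GI50. At the TGI there is no net growth.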

Some test systems named below: CCRF-CEM leukemia; KM12 colon; CAKI-1 renal; NCI-H460 lung; IGROV1 ovarian; SR leukemia; HL-60(TB) leukemia; HT29 colon; SNB-75 CNS; NCI/ADR-RES ovarian.
What all share (assay): inhibition of tumour cell growth, NCI panel, 48 h

In the case of `CC1(C)O[C@@H](CCl)C[C@@H](C#N)O1`, the TGI with CCRF-CEM leukemia, in the assay with KM12 colon, in the assay with CAKI-1 renal, in the assay with NCI-H460 lung, in the assay on IGROV1 ovarian and in the assay on SR leukemia was over 100 µM in each case. In addition, the TGI in the assay with HL-60(TB) leukemia, in the assay on HT29 colon and with SNB-75 CNS was over 100 µM throughout.

As for `CN(C)CN(C)c1nc(N(C)C)nc(N(C)C)n1`, the TGI in the assay on CCRF-CEM leukemia, with KM12 colon, in the assay on CAKI-1 renal, with NCI-H460 lung, in the assay on IGROV1 ovarian and in the assay with SR leukemia was over 100 µM in each case. Further, the TGI in the assay with HL-60(TB) leukemia, in the assay with HT29 colon and in the assay with SNB-75 CNS was over 100 µM throughout.

Take `COC(=O)C1C(=O)NC2(C)CC1c1ccccc1O2` (configuration not stated): the TGI in the assay on CCRF-CEM leukemia, with KM12 colon, in the assay with CAKI-1 renal, in the assay with NCI-H460 lung, with IGROV1 ovarian and with SR leukemia was over 100 µM throughout. Besides, the TGI in the assay on HL-60(TB) leukemia, in the assay on HT29 colon and in the assay on SNB-75 CNS was over 100 µM in each case.

As for `O=C(O)c1cc2ccc(Cl)cc2c(O)c1C1=CCCCC1`, the TGI was over 100 µM in the assay with CCRF-CEM leukemia; over 100 µM in the assay with KM12 colon; 96.4 µM in the assay with CAKI-1 renal; over 100 µM with NCI-H460 lung; over 100 µM in the assay with IGROV1 ovarian; over 100 µM with SR leukemia. Moreover, the TGI in the assay on HL-60(TB) leukemia is over 100 µM; in the assay with HT29 colon it was over 100 µM; in the assay on SNB-75 CNS, 34.7 µM.

Regarding `CN(Cc1cnc2nc(N)nc(N)c2n1)c1c(Cl)cc(C(=O)NC(CCC(=O)O)C(=O)O)cc1Br` (configuration not stated), the GI50 in the assay with CCRF-CEM leukemia, in the assay on KM12 colon, in the assay with CAKI-1 renal, in the assay with NCI-H460 lung, in the assay on IGROV1 ovarian and with SR leukemia was under 0.01 µM throughout. Moreover, the GI50 in the assay on HL-60(TB) leukemia, in the assay on HT29 colon and with NCI/ADR-RES ovarian was under 0.01 µM each time. Besides, the TGI was over 100 µM in the assay on CCRF-CEM leukemia; over 100 µM with KM12 colon; 0.0671 µM in the assay with CAKI-1 renal; over 100 µM in the assay with NCI-H460 lung; 18.2 µM with IGROV1 ovarian; over 100 µM with SR leukemia. Further, the TGI with HL-60(TB) leukemia, with HT29 colon and with NCI/ADR-RES ovarian was over 100 µM in each case.

On to `Cc1c(C(=O)/C=C/c2ccc3c(c2)OCO3)[n+](=O)c2ccccc2n1[O-]`, for which the TGI in the assay on CCRF-CEM leukemia was over 100 µM; with KM12 colon, 90.5 µM; in the assay with CAKI-1 renal, 85.7 µM; with NCI-H460 lung, 75.6 µM; with IGROV1 ovarian it was over 100 µM; in the assay with SR leukemia it was over 100 µM. Moreover, the TGI in the assay with HL-60(TB) leukemia is over 100 µM; in the assay with HT29 colon it was 56.4 µM; with SNB-75 CNS it was 68.6 µM.

With `CC[C@]1(O)C[C@@H]2CN(CCc3c([nH]c4ccccc34)[C@@](C(=O)OC)(c3cc4c(cc3OC)N(C)[C@H]3[C@@](O)(C(=O)OC)[C@H](OC(=O)CCCBr)[C@]5(CC)C=CCN6CC[C@]43[C@@H]65)C2)C1`, the GI50 with CCRF-CEM leukemia is 0.0232 µM; in the assay with KM12 colon it was under 0.0163 µM; in the assay on CAKI-1 renal, under 0.0206 µM; in the assay with NCI-H460 lung, 0.0245 µM; with IGROV1 ovarian it was 0.0263 µM; in the assay on SR leukemia, under 0.01 µM. For the same compound, the GI50 in the assay with HT29 colon was under 0.01 µM; with SNB-75 CNS, under 0.01 µM; with NCI/ADR-RES ovarian, 0.986 µM. Besides, the TGI in the assay with CCRF-CEM leukemia was over 100 µM; with KM12 colon it was 3.84 µM; in the assay on CAKI-1 renal, 2.12 µM; in the assay on NCI-H460 lung, over 100 µM; in the assay with IGROV1 ovarian, over 100 µM; with SR leukemia it was over 100 µM. The TGI in the assay on HT29 colon is over 100 µM; in the assay with SNB-75 CNS, under 0.01 µM; in the assay with NCI/ADR-RES ovarian, over 100 µM.

As to `COc1cc2ccc(CC(=O)O)cc2cc1OC`, the TGI in the assay on CCRF-CEM leukemia, with KM12 colon, with CAKI-1 renal, with IGROV1 ovarian, with SR leukemia and in the assay with HL-60(TB) leukemia was over 100 µM each time. In addition, the TGI in the assay with HT29 colon and in the assay with SNB-75 CNS was over 100 µM in each case.

As for `O=C(Nc1c(Cl)cc([N+](=O)[O-])cc1Cl)C(=O)C(C(=O)c1ccncc1)C1OC(=O)c2ccccc21` (configuration not stated), the TGI with CCRF-CEM leukemia, in the assay on KM12 colon, with CAKI-1 renal, with NCI-H460 lung, in the assay on IGROV1 ovarian and in the assay with SR leukemia was over 100 µM in each case. Further, the TGI in the assay with HL-60(TB) leukemia, in the assay on HT29 colon and in the assay with SNB-75 CNS was over 100 µM each time.

Turning to `COc1cc2c(cc1OC)C(Sc1ccc(Cl)cc1)c1c(nc(N)c(C#N)c1N)O2` (configuration not stated), the GI50 with CCRF-CEM leukemia is 0.311 µM; in the assay on KM12 colon, 1.75 µM; in the assay with NCI-H460 lung it was 1.65 µM; in the assay on IGROV1 ovarian, 1.07 µM; in the assay on SR leukemia, 0.329 µM; in the assay with HL-60(TB) leukemia, 0.578 µM. Further, the values for the GI50 in the assay on HT29 colon and in the assay with SNB-75 CNS were 1.88 µM and 1.14 µM, respectively. The TGI in the assay with CCRF-CEM leukemia was 2.63 µM; in the assay with KM12 colon, 3.35 µM; in the assay on NCI-H460 lung, 3.74 µM; in the assay with IGROV1 ovarian, 2.88 µM; with SR leukemia, 1.66 µM; with HL-60(TB) leukemia, 3.73 µM. Further, the results for the TGI in the assay on HT29 colon and in the assay on SNB-75 CNS were 4.12 µM and 2.42 µM, respectively.

Regarding `O=C([CH-]C(=O)c1ccccc1)c1ccccc1.[CH2-]C.[CH2-]C.[Tl+3]`, the GI50 in the assay with KM12 colon is 49.6 µM; in the assay with CAKI-1 renal, 27.2 µM; in the assay with NCI-H460 lung, 10.8 µM; with IGROV1 ovarian, 24.4 µM; in the assay on SR leukemia it was 6.35 µM; in the assay on HL-60(TB) leukemia, 2.99 µM. Besides, the figures for the GI50 in the assay on HT29 colon, with SNB-75 CNS and in the assay with NCI/ADR-RES ovarian were 26 µM, 25.2 µM and 26.1 µM, respectively. Besides, the TGI is over 100 µM in the assay on KM12 colon; over 96.3 µM with CAKI-1 renal; over 100 µM with NCI-H460 lung; over 100 µM in the assay on IGROV1 ovarian; 50.1 µM in the assay on SR leukemia; 21.6 µM with HL-60(TB) leukemia. The TGI in the assay on HT29 colon, in the assay on SNB-75 CNS and in the assay on NCI/ADR-RES ovarian was over 100 µM throughout.
